Test results published in patent US10669242B2 (priority 2016, dated 2020).

What was measured:
[1] = biological target: T1, C. difficile full-length toxin TcdB (Clostridioides difficile, UniProt P18177); assay: cell-based
T1 construct: C. difficile full-length toxins (TcdA or TcdB); purchased EMD Millipore 616377

[2] = biological target: T2, C. difficile full-length toxin TcdA (Clostridioides difficile, UniProt P16154); assay: cell-based
T2 construct: C. difficile full-length toxins (TcdA or TcdB); purchased Enzo Life Sciences BML-G140-0050
T2 sequence (P16154 whole entry, looked up): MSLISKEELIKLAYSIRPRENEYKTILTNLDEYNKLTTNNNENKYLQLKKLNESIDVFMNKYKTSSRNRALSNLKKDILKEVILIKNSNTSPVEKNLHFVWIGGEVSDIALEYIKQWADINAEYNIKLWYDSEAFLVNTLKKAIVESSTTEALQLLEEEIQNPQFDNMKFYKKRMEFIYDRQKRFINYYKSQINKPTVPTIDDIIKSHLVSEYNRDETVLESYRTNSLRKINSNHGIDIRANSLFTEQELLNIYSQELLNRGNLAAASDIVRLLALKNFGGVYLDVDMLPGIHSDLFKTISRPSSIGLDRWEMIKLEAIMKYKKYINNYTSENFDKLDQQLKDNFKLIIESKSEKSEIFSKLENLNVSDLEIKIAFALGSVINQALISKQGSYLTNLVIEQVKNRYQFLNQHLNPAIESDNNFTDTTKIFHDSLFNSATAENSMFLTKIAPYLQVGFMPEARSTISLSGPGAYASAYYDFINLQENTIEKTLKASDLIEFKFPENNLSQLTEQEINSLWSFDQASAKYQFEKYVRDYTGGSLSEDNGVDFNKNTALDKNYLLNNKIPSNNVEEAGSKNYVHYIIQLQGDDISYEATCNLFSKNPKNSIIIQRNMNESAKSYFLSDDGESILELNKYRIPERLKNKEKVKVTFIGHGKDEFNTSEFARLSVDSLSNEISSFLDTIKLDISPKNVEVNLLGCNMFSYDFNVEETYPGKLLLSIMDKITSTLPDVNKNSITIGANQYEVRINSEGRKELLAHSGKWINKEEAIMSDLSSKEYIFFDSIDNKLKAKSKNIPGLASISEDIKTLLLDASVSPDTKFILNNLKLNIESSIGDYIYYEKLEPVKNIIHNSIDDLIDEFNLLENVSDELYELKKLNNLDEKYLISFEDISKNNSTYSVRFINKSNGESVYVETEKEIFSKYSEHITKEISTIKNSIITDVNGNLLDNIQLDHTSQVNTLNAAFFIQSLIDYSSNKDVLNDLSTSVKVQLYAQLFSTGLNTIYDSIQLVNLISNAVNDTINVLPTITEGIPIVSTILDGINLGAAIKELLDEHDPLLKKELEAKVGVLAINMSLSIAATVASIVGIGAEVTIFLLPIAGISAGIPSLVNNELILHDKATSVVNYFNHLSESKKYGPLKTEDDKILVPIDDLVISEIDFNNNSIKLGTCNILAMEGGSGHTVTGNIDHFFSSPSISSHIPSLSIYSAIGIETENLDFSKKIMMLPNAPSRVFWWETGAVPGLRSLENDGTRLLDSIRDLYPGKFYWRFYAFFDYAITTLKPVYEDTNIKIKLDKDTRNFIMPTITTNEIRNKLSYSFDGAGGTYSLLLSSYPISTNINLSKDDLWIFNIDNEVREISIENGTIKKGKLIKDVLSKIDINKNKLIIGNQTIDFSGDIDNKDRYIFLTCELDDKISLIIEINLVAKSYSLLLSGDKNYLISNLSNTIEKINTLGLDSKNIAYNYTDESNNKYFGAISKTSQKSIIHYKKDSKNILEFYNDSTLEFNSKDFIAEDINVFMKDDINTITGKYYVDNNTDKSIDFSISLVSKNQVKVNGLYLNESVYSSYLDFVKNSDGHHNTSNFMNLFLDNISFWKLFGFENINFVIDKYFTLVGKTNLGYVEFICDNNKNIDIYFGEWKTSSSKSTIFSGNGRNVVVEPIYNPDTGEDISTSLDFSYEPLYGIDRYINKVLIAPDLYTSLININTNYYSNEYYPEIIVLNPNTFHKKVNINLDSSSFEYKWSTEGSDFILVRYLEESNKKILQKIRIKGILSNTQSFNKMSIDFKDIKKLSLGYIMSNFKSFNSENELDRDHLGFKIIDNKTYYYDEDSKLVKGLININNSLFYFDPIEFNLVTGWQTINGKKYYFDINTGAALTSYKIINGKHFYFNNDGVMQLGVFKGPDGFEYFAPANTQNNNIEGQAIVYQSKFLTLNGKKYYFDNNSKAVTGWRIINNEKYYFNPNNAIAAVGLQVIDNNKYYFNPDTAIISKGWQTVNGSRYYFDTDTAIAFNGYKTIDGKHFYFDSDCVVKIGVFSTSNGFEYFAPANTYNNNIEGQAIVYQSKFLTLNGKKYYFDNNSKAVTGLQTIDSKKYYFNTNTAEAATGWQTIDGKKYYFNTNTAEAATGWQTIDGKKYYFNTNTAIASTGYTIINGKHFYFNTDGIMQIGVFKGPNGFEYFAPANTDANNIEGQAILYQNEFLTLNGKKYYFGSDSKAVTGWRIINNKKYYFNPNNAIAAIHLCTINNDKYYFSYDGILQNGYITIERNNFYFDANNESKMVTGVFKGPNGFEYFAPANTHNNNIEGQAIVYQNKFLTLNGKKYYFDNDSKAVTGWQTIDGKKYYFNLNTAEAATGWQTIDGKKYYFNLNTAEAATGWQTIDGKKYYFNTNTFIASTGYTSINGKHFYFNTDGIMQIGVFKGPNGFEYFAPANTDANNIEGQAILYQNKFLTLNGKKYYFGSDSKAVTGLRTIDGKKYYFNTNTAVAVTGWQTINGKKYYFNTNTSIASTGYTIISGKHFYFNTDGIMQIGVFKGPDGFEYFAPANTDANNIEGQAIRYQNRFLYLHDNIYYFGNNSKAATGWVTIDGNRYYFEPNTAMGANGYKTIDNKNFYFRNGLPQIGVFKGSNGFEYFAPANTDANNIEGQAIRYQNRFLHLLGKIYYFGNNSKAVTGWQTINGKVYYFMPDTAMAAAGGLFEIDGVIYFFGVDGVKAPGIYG

[3] = biological target: T3, recombinant glucosyltransferase domain of C. difficile Toxin B/TcdB (Clostridioides difficile, UniProt P18177); assay: biochemical
T3 construct: 6-His (C); purchased R&D Systems 6246-GT

[4] = system: C. difficile toxin (TcdA and TcdB, ~1:1); assay: Murine C. difficile toxin model (intrarectal toxin); format: in vivo, C57BL/6 mice; settings: murine C. difficile toxin model, PO, 50 mg/kg body weight
Method: In the following studies, we established a murine C. difficile toxin model with modifications from a published murine model (Hirota, Iablokov et al. 2012). Details of the murine C. difficile toxin model are described in the “Experimental Protocols” (below). C. difficile toxins were isolated from a culture of the C. difficile strain VPI 10463. C. difficile toxins consisted of TcdA and TcdB (˜1:1 ratio of TcdA:TcdB). Respective TcdA and TcdB concentrations were determined by enzyme-linked immunosorbant assay (ELISA). In our mouse model, C. difficile toxins were administered intrarectally to evaluate their pathological effects.
We administered C. difficile toxin (12.5 μg/mouse) via intrarectal instillation into female C57BL/6 mice. Four (4) animals were used in each group. Four (4) hours after the toxin administration, the mice were euthanized. The colons were excised from the animals and washed with phosphate buffered saline (PBS). The colon lengths were measured. Excised colon tissues were stored at −70° C. for chemical analysis of interleukin-1β(IL-1β) and myeloperosidase (MPO) in tissues, which are the hallmarks of colon inflammation. Excised colon tissues were also stored at room temperature in 10% neutral buffered formalin for histopathological analysis.
Using the murine C. difficile toxin model (Example 61), we evaluated the efficacy of Example 6a in reducing the C. difficile toxin activity. In this study, the isolated toxin (12.5 μg) was diluted in 50 μl of PBS and mixed with a 50 μl suspension of Example 6a (10 mg/mL) in 1% carboxymethyl cellulose and 0.5% Tween 80 to achieve a fixed dose of […] of Example 6a (0.5 mg in mice weighing ˜20 g) and C. difficile toxin (12.5 μg). Three (3) animals were used in each group.
In this study, we evaluated the efficacy of Example 6a via different routes of administration (i.e., oral (PO) and intraperitoneal (IP) administrations) in the same murine C. difficile toxin model (Example 61). In both PO and IP dosages, Example 6a was prepared as 5 mg/mL solutions in 20% PEG-400, 0.4% carboxymethyl cellulose and 0.2% Tween 80. Example 6a was administered at a final dose of 50 mg/kg body weight. Three (3) mice were used in each group (i.e., vehicle (control), PO and IP).
Using the murine C. difficile toxin model (Example 63), we further tested the efficacy of four (4) additional compounds (i.e., Example 6a, Example 5ae, Example 4cl, and Example 5al) via PO administration. All of the compounds were dosed orally at 50 mg/kg body weight. In three separate studies a total of three (3) to fourteen (14) mice were used in each group.
We evaluated the efficacy of additional compounds in reducing C. difficile toxicity. Using the PO administration (Example 63), we further tested 30 compounds (Table 34). All of the compounds were dosed orally at 50 mg/kg body weight. Three (3) to fourteen (14) animals were used for each compound. % inhibition was determined by the following formula: […]
An overnight culture of C. difficile strain VPI 10463 (American Type Culture Collection) was grown at 37° C. in Brain-Heart Infusion (BHI) broth using the GasPak EZ Anaerobe Pouch System (Becton Dickinson). 2 mL of the culture was added to 28 mL of phosphate buffered saline (PBS) in a gamma-irradiated, 10,000 molecular weight cut-off, 30-70 ml Slide-A-Lyzer G2 dialysis cassette (Pierce). This cassette was submerged in 1 L of BHI broth in a 2 L beaker and incubated under anaerobic conditions for 5 days at 37° C. The culture was then transferred to a 50 mL conical tube and the cassette was washed with 10 mL of PBS. The combined culture and wash were centrifuged at 2,000 g for 20 minutes to pellet the bacteria and the supernatant was filtered through a 0.2 μm syringe filter. The filtrate was then applied to a 20 mL 150 K molecular weight cut-off concentration column (Pierce) and centrifuged at 2,000 g for 15 minutes. Concentrated supernatant was stored at 4° C. […]

T1 sequence (P18177 2-2366 limits assumed): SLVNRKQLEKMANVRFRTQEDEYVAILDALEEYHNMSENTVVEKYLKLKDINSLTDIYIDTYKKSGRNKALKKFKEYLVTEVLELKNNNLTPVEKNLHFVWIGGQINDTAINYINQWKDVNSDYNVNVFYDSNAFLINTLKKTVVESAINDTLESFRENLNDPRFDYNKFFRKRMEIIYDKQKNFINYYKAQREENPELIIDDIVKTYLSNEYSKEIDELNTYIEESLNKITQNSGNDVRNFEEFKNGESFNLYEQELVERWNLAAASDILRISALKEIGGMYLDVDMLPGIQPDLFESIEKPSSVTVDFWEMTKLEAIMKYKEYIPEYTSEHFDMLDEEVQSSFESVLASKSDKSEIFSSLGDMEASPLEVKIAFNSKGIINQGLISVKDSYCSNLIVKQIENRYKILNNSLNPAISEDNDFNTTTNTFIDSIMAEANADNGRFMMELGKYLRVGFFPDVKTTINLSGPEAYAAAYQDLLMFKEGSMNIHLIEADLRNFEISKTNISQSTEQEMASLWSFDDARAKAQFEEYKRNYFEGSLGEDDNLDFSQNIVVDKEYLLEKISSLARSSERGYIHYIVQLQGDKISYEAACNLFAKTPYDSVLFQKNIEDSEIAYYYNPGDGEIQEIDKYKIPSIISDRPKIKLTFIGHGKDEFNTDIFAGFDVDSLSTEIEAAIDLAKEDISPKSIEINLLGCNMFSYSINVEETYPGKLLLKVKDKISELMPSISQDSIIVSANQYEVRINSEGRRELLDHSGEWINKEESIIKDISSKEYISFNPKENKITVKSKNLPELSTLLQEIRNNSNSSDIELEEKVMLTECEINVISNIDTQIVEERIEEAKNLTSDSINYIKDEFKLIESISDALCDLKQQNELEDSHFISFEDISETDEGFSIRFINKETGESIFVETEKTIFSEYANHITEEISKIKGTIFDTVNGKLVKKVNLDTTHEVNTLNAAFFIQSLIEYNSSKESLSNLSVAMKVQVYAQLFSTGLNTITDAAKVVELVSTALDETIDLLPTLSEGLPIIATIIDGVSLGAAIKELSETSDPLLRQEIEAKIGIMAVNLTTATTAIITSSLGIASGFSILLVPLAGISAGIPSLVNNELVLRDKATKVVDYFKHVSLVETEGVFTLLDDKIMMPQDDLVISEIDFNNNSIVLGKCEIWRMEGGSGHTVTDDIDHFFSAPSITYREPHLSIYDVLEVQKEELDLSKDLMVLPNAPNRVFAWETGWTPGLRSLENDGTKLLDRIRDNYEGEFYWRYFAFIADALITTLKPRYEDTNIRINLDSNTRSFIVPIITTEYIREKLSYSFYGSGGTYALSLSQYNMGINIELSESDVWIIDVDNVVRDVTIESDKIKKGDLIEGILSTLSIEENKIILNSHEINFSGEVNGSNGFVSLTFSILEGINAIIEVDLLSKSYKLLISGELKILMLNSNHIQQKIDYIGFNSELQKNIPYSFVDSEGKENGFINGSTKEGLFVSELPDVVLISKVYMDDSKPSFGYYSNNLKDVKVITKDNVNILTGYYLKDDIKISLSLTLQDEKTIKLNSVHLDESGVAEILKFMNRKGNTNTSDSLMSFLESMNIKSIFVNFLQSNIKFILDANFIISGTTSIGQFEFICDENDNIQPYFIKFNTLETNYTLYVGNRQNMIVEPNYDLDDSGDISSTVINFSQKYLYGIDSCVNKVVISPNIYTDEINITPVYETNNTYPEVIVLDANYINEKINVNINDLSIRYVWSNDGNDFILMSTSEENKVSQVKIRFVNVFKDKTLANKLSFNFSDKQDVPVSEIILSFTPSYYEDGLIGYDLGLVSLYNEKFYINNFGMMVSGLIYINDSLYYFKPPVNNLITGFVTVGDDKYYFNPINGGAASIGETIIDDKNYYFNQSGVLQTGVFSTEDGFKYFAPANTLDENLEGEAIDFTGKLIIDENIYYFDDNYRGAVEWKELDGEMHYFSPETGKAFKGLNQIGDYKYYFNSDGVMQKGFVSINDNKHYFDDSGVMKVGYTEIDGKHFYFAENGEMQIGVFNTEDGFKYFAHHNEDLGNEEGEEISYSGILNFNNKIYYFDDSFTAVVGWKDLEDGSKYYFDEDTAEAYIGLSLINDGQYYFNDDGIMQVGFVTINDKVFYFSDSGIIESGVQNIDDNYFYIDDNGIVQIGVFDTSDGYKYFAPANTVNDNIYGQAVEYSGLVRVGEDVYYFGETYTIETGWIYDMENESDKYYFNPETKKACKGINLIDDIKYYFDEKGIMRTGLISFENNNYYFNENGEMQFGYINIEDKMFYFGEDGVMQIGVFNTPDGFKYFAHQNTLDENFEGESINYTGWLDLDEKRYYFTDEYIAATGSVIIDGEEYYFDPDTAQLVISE

SMILES	IC50 [1] [nM]	IC50 [2] [nM]	IC50 [3] [nM]	IL-1β (% Inhibition) [4] [%]	MPO (% Inhibition) [4] [%]
COc1cc(CN2C(=O)c3ccc(Cl)cc3NC(=O)[C@H]2Cc2ccccn2)ccc1C(=O)Nc1cnc(C)cn1 [Example 5aj, (R)-4-((8-Chloro-2,5-dioxo-3-(pyridin-2-ylmethyl)-2,3-dihydro-1H-benzo[e][1,4]diazepin-4(5H)-yl)methyl)-2-methoxy-N-(5-methylpyrazin-2-yl)benzamide]	100 to 999	1000 to 10000	< 100	76	17
COc1cnc(NC(=O)c2ccc(CN3C(=O)c4ccc(Cl)cc4NC(=O)[C@H]3Cc3ccccn3)cc2OC)cn1 [Example 5ak, (R)-4-((8-Chloro-2,5-dioxo-3-(pyridin-2-ylmethyl)-2,3-dihydro-1H-benzo[e][1,4]diazepin-4(5H)-yl)methyl)-2-methoxy-N-(5-methoxypyrazin-2-yl)benzamide]	100 to 999	1000 to 10000	< 100	71	73
COc1cc(CN2C(=O)c3ccc(Cl)cc3NC(=O)[C@H]2Cc2ccccn2)ccc1C(=O)Nc1ncc(C)cn1 [Example 5am, (R)-4-((8-Chloro-2,5-dioxo-3-(pyridin-2-ylmethyl)-2,3-dihydro-1H-benzo[e][1,4]diazepin-4(5H)-yl)methyl)-2-methoxy-N-(5-methylpyrimidin-2-yl)benzamide]	100 to 999	1000 to 10000	< 100	54	31
COc1cnc(NC(=O)c2ccc(CN3C(=O)c4ccc(Cl)cc4NC(=O)[C@H]3Cc3ccccn3)cc2OC)nc1 [Example 5an, (R)-4-((8-Chloro-2,5-dioxo-3-(pyridin-2-ylmethyl)-2,3-dihydro-1H-benzo[e][1,4]diazepin-4(5H)-yl)methyl)-2-methoxy-N-(5-methoxypyrimidin-2-yl)benzamide]	100 to 999	1000 to 10000	< 100	87	63
O=C(c1ccc(CN2C(=O)c3ccc(Cl)cc3NC(=O)[C@H]2Cc2ccccn2)cc1)c1ccccn1 [Example 11a, (R)-8-Chloro-4-(4-picolinoylbenzyl)-3-(pyridin-2-ylmethyl)-3,4-dihydro-1H-benzo[e][1,4]diazepine-2,5-dione]	1000 to 10000	> 10000	< 100	22	0
Cc1ccc(C(=O)c2ccc(CN3C(=O)c4ccc(Cl)cc4NC(=O)[C@H]3Cc3ccccn3)cc2)nc1 [Example 11b, (R)-8-Chloro-4-(4-(5-methylpicolinoyl)benzyl)-3-(pyridin-2-ylmethyl)-3,4-dihydro-1H-benzo[e][1,4]diazepine-2,5-dione]	1000 to 10000	> 10000	< 100	52	100
O=C(c1ccccn1)c1ccc(CN2C(=O)c3ccc(Cl)cc3NC(=O)[C@H]2Cc2ccccn2)cc1Cl [Example 11g, (R)-8-Chloro-4-(3-chloro-4-picolinoylbenzyl)-3-(pyridin-2-ylmethyl)-3,4-dihydro-1H-benzo[e][1,4]diazepine-2,5-dione]	1000 to 10000	> 10000	< 100	15	28
O=C(Nc1ccc(CN2C(=O)c3ccc(Cl)cc3NC(=O)[C@H]2Cc2ccccn2)cc1)c1c[nH]cn1 [Example 27j, (R)-N-(4-((8-Chloro-2,5-dioxo-3-(pyridin-2-ylmethyl)-2,3-dihydro-1H-benzo[e][1,4]diazepin-4(5H)-yl)methyl)phenyl)-1H-imidazole-4-carboxamide]	1000 to 10000	> 10000	< 100	41	1
Cn1cc(C(=O)c2ccc(CN3C(=O)c4ccc(Cl)cc4NC(=O)[C@H]3Cc3ccccn3)cc2)c2ncccc21 [Example 31a, (R)-8-Chloro-4-(4-(1-methyl-1H-pyrrolo[3,2-b]pyridine-3-carbonyl)benzyl)-3-(pyridin-2-ylmethyl)-3,4-dihydro-1H-benzo[e][1,4]diazepine-2,5-dione]	100 to 999	1000 to 10000	< 100	100	100
Cn1cc(C(=O)[C@H]2CC[C@H](CN3C(=O)c4ccc(Cl)cc4NC(=O)[C@H]3Cc3ccccn3)CC2)c2ncccc21 [Example 33b, (R)-8-Chloro-4-(((1r,4R)-4-(1-methyl-1H-pyrrolo[3,2-b]pyridine-3-carbonyl)cyclohexyl)methyl)-3-(pyridin-2-ylmethyl)-3,4-dihydro-1H-benzo[e][1,4]diazepine-2,5-dione]	100 to 999	1000 to 10000	< 100	84	41
O=C1Nc2cc(Cl)ccc2C(=O)N(Cc2ccc(N3CCc4cccnc4C3=O)cc2)[C@@H]1Cc1ccccn1 [Example 49b, (R)-8-Chloro-4-(4-(8-oxo-5,6-dihydro-1,7-naphthyridin-7(8H)-yl)benzyl)-3-(pyridin-2-ylmethyl)-3,4-dihydro-1H-benzo[e][1,4]diazepine-2,5-dione]	1000 to 10000	> 10000	< 100	13	0
O=C1Nc2cc(Cl)ccc2C(=O)N(Cc2ccc(N3Cc4cccnc4C3=O)cc2)[C@@H]1Cc1ccccn1 [Example 49c, (R)-8-Chloro-4-(4-(7-oxo-5H-pyrrolo[3,4-b]pyridin-6(7H)-yl)benzyl)-3-(pyridin-2-ylmethyl)-3,4-dihydro-1H-benzo[e][1,4]diazepine-2,5-dione]	> 10000	> 10000	< 100	30	0
